# Source: patent US12528837B2, “Aryl substituted polymyxin derivatives” (priority 2018, dated 2026)
# Read-outs that look alike come from different tables or passages of the source. *1 amine or outer side, *2 acyl side, *3 side chain or, on linkers, in order; H or OH if unused. Where a SMILES comes first, the peptide text is derived from it. Bridges are numbered along the chain shown (N, C = ends). [ ]: non-standard residue; d: D form. The star is where a group is joined. GABA(3S-Bn) = O=C(C[C@@H](CN[*:1])Cc1ccccc1)[*:2]; X3 = CC(C)c1cccc([C@@H](CN)CC(=O)*)c1; X4 = NC[C@@H](CC(=O)*)c1ccc(Cl)cc1; X7 = NC[C@H](CC(=O)*)c1cccc(Cl)c1; Dab = NCC[C@H](N)C(=O)O; Dap = NC[C@H](N)C(=O)O
# Columns and labels:
# [1] = test system: HK-2 cells; experiment: In vitro renal cell toxicity assay (HK-2); assay type: cell-based
# Method: The in vitro renal cell toxicity assay was performed according to the following protocol. […] Cells were seeded at 7,500 cells per well in 96-well plates and allowed to adhere overnight. […] Water and DMSO levels were kept constant at 5% and 0.5% respectively. The test compounds were incubated with cells for 24 h at 37° C. 5% CO2 in a humidified atmosphere. […] Media only background values were subtracted before the data was analysed using GraphPad Prism. Individual values were normalised to the vehicle control wells for each compound. Compound concentration values were plotted as log values to enable a dose-response curve to be fitted. The bottom of the curve was constrained to zero and IC50 values were determined. IC50 values are expressed relative to that for PMB in the same experiment. Where multiple determinations have been made, median values are presented.
# [2] = Kidney drug level after subcutaneous dose in mouse; assay type: in vivo
# Method: Four hours after dosing the animals were euthanised and kidneys removed, trimmed of fat and connective tissue, weighed and immediately snap-frozen. After thawing at room temperature, pairs of kidneys from each animal were placed in 2 mL conical tubes containing pre-weighed ceria-stabilised zirconium oxide beads. […] After 10 min. centrifugation at 13,000 rpm and 6° C., 200 μl of the supernatants were transferred into glass inserts and analysed by LC-MS-MS.
# [3] = test system: E. coli CA58; assay type: cell-based
# Method: (§1) The inoculum was prepared by making a direct suspension of isolated colonies (selected from an 18-24 hour Mueller-Hinton agar plate) adjusted to the 0.5 McFarland standard. […] The assays were performed in duplicate. […] Several of the compounds were subjected to multiple tests, and where this is the case, the MIC presented is the median value obtained. The MIC values are quoted in μg/mL.
# [4] = test system: K. pneumoniae CA64; assay type: cell-based
# Method: as §1
# [5] = test system: P. aeruginosa CCUG 59347; assay type: cell-based
# Method: as §1
# [6] = test system: A. baumannii ATCC BAA-747; assay type: cell-based
# Method: (§2) The inoculum was prepared by making a direct suspension of isolated colonies (selected from an 18-24 hour Mueller-Hinton agar plate) adjusted to the 0.5 McFarland standard. […] The assays were performed in duplicate. […] The MIC values are quoted in μg/mL.
# [7] = test system: A. baumannii NCTC 13424; assay type: cell-based
# Method: as §2
# [8] = test system: P. aeruginosa ATCC 27853; assay type: cell-based; conditions: ATCC 27853
# Method: as §2
# [9] = test system: K. pneumoniae ATCC 13822; assay type: cell-based; conditions: cation-adjusted Mueller-Hinton Broth, 18-20 h, 35° C.
# Method: as §2
# [10] = cation-adjusted Mueller-Hinton Broth, 18-20 h, 35° C.
Compound,HK-2 rel to PMB [1],"4 hr kidney level/rel. cytotoxicity ([2]; mouse, in vivo)","Drug Level in Kidney (μg/g kidney, 4 h) ([2]; mouse, in vivo, sc, 17.2 mg/kg)","tissue level at time at 4 h ([2]; mouse, in vivo, sc, 17.2 mg/kg)",MIC E. coli CA58 ([3]; CA58),MIC K. pneumoniae CA64 ([4]; CA64),MIC P. aeruginosa CCUG 59347 ([5]; CCUG 59347),MIC A. baumannii ATCC BAA-747 ([6]; ATCC BAA-747),MIC A. baumannii NCTC 13424 ([7]; NCTC 13424),MIC P. aeruginosa ATCC 27853 [8],"HK-2 rel to PMB ([1]; IC50 relative to PMB in the same experiment, 24 h)","Drug level in kidney ([2]; mouse, 17.2 mg/kg sc, 4 hours)","tissue level at time at 4 h ([2]; mouse, in vivo, mice, 17.2 mg/kg free base sc, 4 h, read-out: 4 hr kidney level)",4 hr kidney level/rel. cytotoxicity ([2]; ratio of 4 h kidney level to HK-2 IC50 relative to PMB),"MIC E. coli CA58 [3, 10]","MIC K. pneumoniae CA64 [4, 10]","MIC P. aeruginosa CCUG 59347 [5, 10]","MIC A. baumannii ATCC BAA-747 [6, 10]","MIC A. baumannii NCTC 13424 [7, 10]",MIC K. pneumoniae ATCC 13822 [9]
"CC(C)C[C@@H]1NC(=O)[C@@H](Cc2ccccc2)NC(=O)[C@H](CCN)NC(=O)[C@@H](NC(=O)[C@H](CN)NC(=O)[C@@H](NC(=O)C[C@H](CN)c2ccc(Cl)cc2)[C@@H](C)O)CCNC(=O)[C@H]([C@@H](C)O)NC(=O)[C@H](CCN)NC(=O)[C@H](CCN)NC1=O [Example 1, (S)-4-amino-3-(4- chlorophenyl) butanoyl- Thr- Dap-Cyclo[Dab- Dab-DPhe-Leu-Dab- Dab-Thr]] (X4-T[Dap][Dab][Dab][dF]L[Dab][Dab]T; lactam 3-C)",8.8,30,268 μg/g kidney,267000 ng/g,4 µg/mL,8 µg/mL,0.25 µg/mL,0.06 µg/mL,0.06 µg/mL,0.06 µg/mL,,,,,,,,,,
"CC(C)C[C@@H]1NC(=O)[C@@H](Cc2ccccc2)NC(=O)[C@H](CCN)NC(=O)[C@@H](NC(=O)[C@H](CN)NC(=O)[C@@H](NC(=O)C[C@@H](CN)c2cccc(Cl)c2)[C@@H](C)O)CCNC(=O)[C@H]([C@@H](C)O)NC(=O)[C@H](CCN)NC(=O)[C@H](CCN)NC1=O [Example 6, (R)-4-amino-3-(3- chlorophenyl) butanoyl- Thr-Dap-Cyclo[Dab- Dab-DPhe-Leu-Dab- Dab-Thr]] (X7-T[Dap][Dab][Dab][dF]L[Dab][Dab]T; lactam 3-C)",7.8,49,,,8 µg/mL,8 µg/mL,0.5 µg/mL,0.5 µg/mL,0.5 µg/mL,,,,,,,,,,,
"CC(C)C[C@@H]1NC(=O)[C@@H](Cc2ccccc2)NC(=O)[C@H](CCN)NC(=O)[C@@H](NC(=O)[C@H](CN)NC(=O)[C@@H](NC(=O)C[C@@H](CN)Cc2ccccc2)[C@@H](C)O)CCNC(=O)[C@H]([C@@H](C)O)NC(=O)[C@H](CCN)NC(=O)[C@H](CCN)NC1=O [Example 10, (S)-4-amino-3- benzylbutanoyl-Thr- Dap-Cyclo[Dab-Dab- DPhe-Leu-Dab-Dab- Thr]. Isomer 2] ({GABA(3S-Bn)}-T[Dap][Dab][Dab][dF]L[Dab][Dab]T; lactam 3-C)",,,,,,,,,,,8,346 µg/g,346000 ng/g,43,8 µg/mL,16 µg/mL,0.25 µg/mL,0.25 µg/mL,0.25 µg/mL,0.5 µg/mL
"CC(C)C[C@@H]1NC(=O)[C@@H](CC(C)C)NC(=O)[C@H](CCN)NC(=O)[C@@H](NC(=O)[C@H](CN)NC(=O)[C@@H](NC(=O)C[C@H](CN)c2cccc(C(C)C)c2)[C@@H](C)O)CCNC(=O)[C@H]([C@@H](C)O)NC(=O)[C@H](CCN)NC(=O)[C@H](CCN)NC1=O [Example 15, (S)-4-amino-3-(3- isopropylphenyl) butanoyl-Thr-Dap- Cyclo[Dab-Dab-DLeu- Leu-Dab-Dab-Thr]] (X3-T[Dap][Dab][Dab][dL]L[Dab][Dab]T; lactam 3-C)",52.1,,,443000 ng/g,4 µg/mL,16 µg/mL,0.5 µg/mL,0.06 µg/mL,0.06 µg/mL,0.25 µg/mL,,,,,,,,,,
